These results are taken from patent publication US20240279215A1 (Cytokinetics, Incorporated, priority 2022, published 2024).

pEC50: −log10 of the molar value.

Chain of human NAMPT (P43490 whole entry): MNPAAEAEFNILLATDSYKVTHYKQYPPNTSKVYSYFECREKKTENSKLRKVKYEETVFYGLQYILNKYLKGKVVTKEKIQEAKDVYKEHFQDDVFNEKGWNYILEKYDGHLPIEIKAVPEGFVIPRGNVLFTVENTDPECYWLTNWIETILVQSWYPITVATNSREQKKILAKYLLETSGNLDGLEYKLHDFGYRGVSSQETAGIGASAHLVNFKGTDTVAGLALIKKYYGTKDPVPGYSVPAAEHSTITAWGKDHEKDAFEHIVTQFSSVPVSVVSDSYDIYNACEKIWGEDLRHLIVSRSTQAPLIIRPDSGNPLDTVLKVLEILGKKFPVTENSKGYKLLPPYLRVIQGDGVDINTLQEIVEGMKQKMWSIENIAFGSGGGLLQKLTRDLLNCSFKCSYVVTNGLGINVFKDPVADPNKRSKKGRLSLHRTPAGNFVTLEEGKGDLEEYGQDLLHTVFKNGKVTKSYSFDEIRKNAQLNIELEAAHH

In the test the target is human NAMPT (Homo sapiens (Human), UniProt P43490). Briefly: NMN fluorescence biochemical assay (human recombinant NAMPT enzyme assay). In a few lines:
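NMN formed was detected by fluorescence (Ex/Em 355/460 nm) after acetophenone, KOH and formic acid derivatization. The cell-free reaction ran 60 min at ambient temperature with 6 nM human NAMPT, 150 μM nicotinamide, 20 μM PRPP, 2.5 mM ATP, pH 7.2 HEPES, and compound dose responses.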
As usually defined, the pEC50 is the negative decadic logarithm of the EC50, by convention in mol/L. Turning to `CC(=O)N1CCC(OCc2ccc(NC(=O)OCc3ccc(Cl)cc3)cc2)CC1` [Compound 93, 4-chlorobenzyl (4-(((1-acetylpiperidin-4-yl)oxy)methyl)phenyl)carbamate], the “AC1.4 Human” value is 0.75 µM and the pEC50 was 5.17.
For `CC(C)Cn1nccc1C(=O)N(C)Cc1ccc(NC(=O)OCc2ccc(Cl)cc2)cc1` [Compound 94, (4-chlorophenyl)methyl N-[4-({N-methyl-1-[2-(2-methylpropyl)pyrazol-3-yl]formamido}methyl)phenyl]carbamate], the “AC1.4 Human” value is 0.75 µM and the pEC50 is 5.63.
The corresponding values for `COc1cc(C(=O)N[C@@H](C)c2ccc(NC(=O)OCc3ccc(Cl)cc3)cc2)n(C)n1` [Compound 95, (4-chlorophenyl)methyl N-(4-[(1S)-1-[(5-methoxy-2-methylpyrazol-3-yl)formamido]ethyl]phenyl}carbamate] are 0.75 µM and 5.51.
Turning to `C[C@H](NC(=O)N1CCC1)c1ccc(NC(=O)OCc2ccc(Cl)cc2)cc1` [Compound 96], the “AC1.4 Human” value worked out at 0.75 µM and the pEC50 is 5.46.
The corresponding values for `C[C@H](NC(=O)C1CCC(F)(F)C1)c1ccc(NC(=O)OCc2cnco2)cc1` (stereo partly drawn) [Compound 97, 1,3-oxazol-5-ylmethyl N-{4-[(1S)-1-[(3,3-difluorocyclopentyl)formamido]ethyl]phenyl}carbamate] are 0.76 µM and 4.63.
For `COC(=O)N1CCC(Cc2ccc(NC(=O)OCc3ccc(Cl)cc3)cc2)CC1` [Compound 98, methyl 4-(4-((((4-chlorobenzyl)oxy)carbonyl)amino)benzyl)piperidine-1-carboxylate], in that order: 0.78 µM and 5.83.
Take `O=C(Nc1ccc(Cc2ccncc2)cc1)OCc1cn[nH]c1` [Compound 99, (1H-pyrazol-4-yl)methyl (4-(pyridin-4-ylmethyl)phenyl)carbamate]: the “AC1.4 Human” value stood at 0.79 µM and the pEC50 was 4.29.
The corresponding values for `COc1ccc(C(=O)N[C@@H](C)c2ccc(NC(=O)OCc3ccc(Cl)cc3)cc2)cn1` [Compound 100, (4-chlorophenyl)methyl N-{4-[(1S)-1-[(6-methoxypyridin-3-yl)formamido]ethyl]phenyl}carbamate] are 0.81 µM and 5.91.
The corresponding values for `CCn1nccc1C(=O)N[C@@H](C)c1ccc(NC(=O)OCc2ccc(Cl)cc2)cc1` [Compound 101, (4-chlorophenyl)methyl N-{4-[(1S)-1-[(2-ethylpyrazol-3-yl)formamido]ethyl]phenyl}carbamate] are 0.82 µM and 5.38.
For `O=C(Nc1ccc(CC2CCN(C(=O)C3CCC3)CC2)cc1)OCc1ccc(Cl)cc1` [Compound 102, 4-chlorobenzyl (4-((1-(cyclobutanecarbonyl)piperidin-4-yl)methyl)phenyl)carbamate], in that order: 0.82 µM and 5.72.
On to `C[C@H](NC(=O)N1CCCC1)c1ccc(NC(=O)OCc2ccc(Cl)cc2)cc1` [Compound 103, 4-chlorobenzyl (S)-(4-(1-(pyrrolidine-1-carboxamido)ethyl)phenyl)carbamate], for which the “AC1.4 Human” value is 0.83 µM and the pEC50 is 5.37.
Turning to `Cc1ccc(C(=O)N(C)Cc2ccc(NC(=O)OCc3ccc(Cl)cc3)cc2)cn1` [Compound 104, (4-chlorophenyl)methyl N-(4-{[N-methyl-1-(6-methylpyridin-3-yl)formamido]methyl}phenyl)carbamate], the “AC1.4 Human” value is 0.85 µM and the pEC50 was 5.30.
Take `C[C@H](NC(=O)c1ccncc1)c1ccc(NC(=O)OCc2ccc(Cl)cc2)cc1` [Compound 105, (4-chlorophenyl)methyl N-{4-[(1S)-1-(pyridin-4-ylformamido)ethyl]phenyl}carbamate]: the “AC1.4 Human” value was found to be 0.85 µM and the pEC50 is 5.71.
The corresponding values for `O=C(Nc1ccc(Cc2ccncc2)cc1)OCc1ccc(CO)cc1` [Compound 106, 4-(hydroxymethyl)benzyl (4-(pyridin-4-ylmethyl)phenyl)carbamate] are 0.86 µM and 4.58.
On to `CS(=O)(=O)N1CCN(Cc2ccc(NC(=O)OCc3ccc(Cl)cc3)cc2)CC1` [Compound 107, (4-chlorophenyl)methyl N-{4-[(4-methanesulfonylpiperazin-1-yl)methyl]phenyl}carbamate], for which the “AC1.4 Human” value was determined as 0.89 µM and the pEC50 was 4.97.
The corresponding values for `Cc1nocc1C(=O)N(C)Cc1ccc(NC(=O)OCc2ccc(Cl)cc2)cc1` [Compound 108, (4-chlorophenyl)methyl N-(4-{[N-methyl-1-(3-methyl-1,2-oxazol-4-yl)formamido]methyl}phenyl)carbamate] are 0.89 µM and 5.09.
As for `Cc1ncc(C(=O)NCc2ccc(NC(=O)OCc3ccc(Cl)cc3)cc2)cn1` [Compound 109, (4-chlorophenyl)methyl N-(4-{[(2-methylpyrimidin-5-yl)formamido]methyl}phenyl)carbamate], the “AC1.4 Human” value is 0.90 µM and the pEC50 is 5.33.
For `COc1cc(C(=O)N[C@@H](C)c2ccc(NC(=O)OCc3ccc(Cl)cc3)cc2)cnc1C` [Compound 110, (4-chlorophenyl)methyl N-{4-[(1S)-1-[(5-methoxy-6-methylpyridin-3-yl)formamido]ethyl]phenyl}carbamate], in that order: 0.91 µM and 5.46.
For `O=C(Nc1ccc(CC(=O)N2CCCCC2)cc1)OCc1ccc(Cl)cc1` [Compound 111, (4-chlorophenyl)methyl N-{4-[2-oxo-2-(piperidin-1-yl)ethyl]phenyl}carbamate], the “AC1.4 Human” value came to 0.91 µM and the negative logarithm of the EC50 (pEC50) was 5.27.
On to `CN(Cc1ccc(NC(=O)OCc2ccc(Cl)cc2)cc1)C(=O)N1CCC1` [Compound 112, 4-chlorobenzyl (4-((N-methylazetidine-1-carboxamido)methyl)phenyl)carbamate], for which the “AC1.4 Human” value worked out at 0.93 µM and the negative logarithm of the EC50 (pEC50) is 5.26.
On to `O=C(Nc1ccc(C2CCN(CC(F)F)CC2)cc1)OCc1cnco1` [Compound 113, 1,3-oxazol-5-ylmethyl N-{4-[1-(2,2-difluoroethyl)piperidin-4-yl]phenyl}carbamate], for which the “AC1.4 Human” value was 0.94 µM and the pEC50 is 4.29.
As to `Cc1ccc(Cc2ccc(NC(=O)OCc3cncs3)cc2)cn1` [Compound 114, thiazol-5-ylmethyl (4-((6-methylpyridin-3-yl)methyl)phenyl)carbamate], the “AC1.4 Human” value was found to be 0.94 µM and the pEC50 was 4.71.
For `CC(=O)N1CCC(Cc2ccc(NC(=O)OCc3ccncc3)cc2)CC1` [Compound 115, pyridin-4-ylmethyl (4-((1-acetylpiperidin-4-yl)methyl)phenyl)carbamate], in that order: 0.94 µM and 5.50.
The corresponding values for `CC1(O)CCN(C(=O)Cc2ccc(NC(=O)OCc3ccc(Cl)cc3)cc2)CC1` [Compound 116, (4-chlorophenyl)methyl N-{4-[2-(4-hydroxy-4-methylpiperidin-1-yl)-2-oxoethyl]phenyl}carbamate] are 0.95 µM and 5.17.
`C[C@H](NC(=O)C1CCOCC1)c1ccc(NC(=O)OCc2ccc(Cl)cc2)cc1` [Compound 117, 4-chlorobenzyl (S)-(4-(1-(tetrahydro-2H-pyran-4-carboxamido)ethyl)phenyl)carbamate]: the “AC1.4 Human” value is 0.95 µM and the pEC50 was 5.09.
The corresponding values for `C[C@H](NC(=O)c1cccnc1)c1ccc(NC(=O)OCc2ccc(Cl)cc2)cc1` [Compound 118, (4-chlorophenyl)methyl N-{4-[(1S)-1-(pyridin-3-ylformamido)ethyl]phenyl}carbamate] are 0.95 µM and 5.50.
`O=C(Nc1ccc(CC(=O)N2CCC(O)CC2)cc1)OCc1ccc(Cl)cc1` [Compound 119, (4-chlorophenyl)methyl N-{4-[2-(4-hydroxypiperidin-1-yl)-2-oxoethyl]phenyl}carbamate]: the “AC1.4 Human” value was determined as 0.95 µM and the pEC50 is 4.66.
For `COC(=O)N1CCC(CCc2ccc(NC(=O)OCc3cnco3)cc2)CC1` [Compound 120, methyl 4-(4-(((oxazol-5-ylmethoxy)carbonyl)amino)phenethyl)piperidine-1-carboxylate], in that order: 0.96 µM and 4.35.
With `C[C@H](NC(=O)C1COC1)c1ccc(NC(=O)OCc2ccc(Cl)cc2)cc1` [Compound 122, 4-chlorobenzyl (S)-(4-(1-(oxetane-3-carboxamido)ethyl)phenyl)carbamate], the “AC1.4 Human” value was found to be 0.97 µM and the pEC50 was 5.19.
Consider `CC1(C)CCN(Cc2ccc(NC(=O)OCc3ccc(Cl)cc3)cc2)C1=O` [Compound 123, (4-chlorophenyl)methyl N-{4-[(3,3-dimethyl-2-oxopyrrolidin-1-yl)methyl]phenyl}carbamate], for which the “AC1.4 Human” value was found to be 0.98 µM and the pEC50 is 5.30.
The corresponding values for `CN1CCC(C(=O)NCc2ccc(NC(=O)OCc3ccc(Cl)cc3)cc2)CC1=O` (stereo not drawn) [Compound 124, (4-chlorophenyl)methyl N-(4-{[(1-methyl-2-oxopiperidin-4-yl)formamido]methyl}phenyl)carbamate] are 0.98 µM and 4.82.
The corresponding values for `Cc1nc(C)c(C(=O)N[C@@H](C)c2ccc(NC(=O)OCc3ccc(Cl)cc3)cc2)o1` [Compound 125, 4-chlorobenzyl (S)-(4-(1-(2,4-dimethyloxazole-5-carboxamido)ethyl)phenyl)carbamate] are 0.98 µM and 5.22.
In the case of `O=C(Nc1ccc(CNC(=O)c2ccncc2)cc1)OCc1ccc(Cl)cc1` [Compound 126, (4-chlorophenyl)methyl N-{4-[(pyridin-4-ylformamido)methyl]phenyl}carbamate], the “AC1.4 Human” value came to 0.99 µM and the pEC50 is 5.39.
